The source of these data is a melting point compilation (Tetko et al.; mined from patent text by program, amines drawn as free bases though some values may be those of a salt).

The term melting point denotes the temperature, or range, at which the solid turns liquid. `O=C(O)c1ccc2[nH]cc(CCCCN3CC=C(c4ccccc4)CC3)c2c1`: the melting point was 284 to 285 °C.
Regarding `COc1ccc2c(c1)CCC1C2CCC2(C)C(=NN(C)C)C(C)CC12` (stereo not drawn), the melting point lay in the range of 122 to 124 °C.
The result for `Cc1ccc(NC(=O)c2cc([N+](=O)[O-])ccc2NC(=O)CF)c(C)c1` reads 227 to 229 °C; that for `Cc1cccc(-c2[nH]c(C(C)C)nc2-c2cccc(-c3ccc([N+](=O)[O-])cc3)c2)n1`, 95 to 105 °C; that for `CN(CCCNC(=O)NCCCOc1cccc(CN2CCCCC2)c1)CCN(Cc1ccc(F)cc1)c1ccccn1`, 123 to 125 °C.
`COc1cc2c(cc1OC)CN(CCCc1ccc(NC(=O)c3cc(OC)c4ccccc4n3)cc1)CC2`: the melting point fell in the range of 123 to 125 °C.
The result for `CCC(O)(c1ccc(OCCN2CCOCC2)cc1)c1cccc(C(F)(F)F)c1` (stereo not drawn) reads 73 to 74 °C; that for `CCCCOC(=O)Oc1cc(-n2c(OCC)nc(C(F)(F)F)cc2=O)c(F)cc1Cl`, 100 to 102 °C; that for `NCCC1CCSc2[nH]c3ccccc3c21` (stereo not drawn), 136 to 138 °C.
For `Cc1cc(Br)c(N)cc1Cl` the value was 90 °C.
For the molecule `CC(C#N)c1ccc(Cl)nn1` (stereo not drawn), the melting point was determined as 65 °C.
In turn, `CCC(=O)Nc1cnn2cnc3ccccc3c12` yielded a melting point of 202 to 204 °C.
In the case of `CC1(C)OC(=O)C(OC2CCCC2)=C1c1ccc(S(C)(=O)=O)cc1`, the melting point lay within 121 to 122 °C.
The result for `CN1CC2c3ccccc3Cc3ncccc3N2C1` (stereo not drawn) reads 127 to 129 °C; that for `COc1cc(NC(=O)OC(C)(C)C)c([N+](=O)[O-])cc1-c1ccc(F)cc1`, 250 °C.
`CO[C@]1(c2cc(F)cc(Sc3ccc(/C(C)=N/O)cc3)c2)CCO[C@@H](C)C1` had a melting point of 105 °C.
For `CCCCOc1ccc(CCCCCCCCC(=O)O)cc1` the value was 45 to 48 °C; for `COC(=O)Cc1cccc2c1NC(=O)C2`, 156 to 157 °C; for `Clc1ccc2c(NCCCCCCCCCNc3ncnc4cc(Cl)ccc34)ncnc2c1`, 159 to 162 °C.
For `CN1C=Nc2cc(Cl)c3cc4ccccc4cc3c2C1`, the melting point was 236 °C.
On to `CCCCNC(=O)Oc1cccc(NC(=O)CC(C)=O)c1`, for which the melting point was found to be 112 °C.
For `Cc1cc2c(c3c1sc1ccc(O)cc13)C(=O)N(CCN(C)C)C2=O`, the melting point fell in the range of 249 to 254 °C.
The result for `CCCC1C=C2NC(=O)CC[C@]2(C)[C@H]2CC[C@]3(C)[C@@H]([C@H](C)CCCC(C)C)CC[C@H]3[C@H]12` (stereo partly drawn) reads 91 to 94 °C; that for `CC(C)N(O)C(=O)c1c(Cl)cccc1[Si](C)(C)C`, 175 to 179 °C; that for `Cc1nnc(C(O)CCCCCCOc2ccc(OCc3ccccc3)cc2)o1` (stereo not drawn), 98 to 100 °C.
For `CC(C)C1(C)N=C(c2nc3sccc3cc2C(=O)O)NC1=O` (stereo not drawn) the value was 221 to 223 °C; for `OC(c1ccc2c(c1)OCCN2)(C(F)(F)F)C(F)(F)F`, 119 to 120 °C.
For `COC(=O)c1ccc(Cn2nc(C(N)=O)c3ccccc32)cc1` the value was 163 to 165 °C.
`Cc1cc(Cl)cc2c1OC(C)(C)C(/C=C/C=C/C=C/C(=O)O)=C2` came in with a melting point of 190 to 192 °C.
For `OC1CCC2(CC1)Cc1ccccc1C2` the value was 76 to 78 °C; for `COc1nc2cc(Cl)c(Cl)c(N(S(C)(=O)=O)S(C)(=O)=O)c2nc1OC`, 240 to 244 °C.
`CC(C)(C)OC(=O)N1CCC(=O)N1c1ccccc1` had a melting point of 150 °C.
On to `CN(C)c1ccc(CNC(=O)CNC(=O)Nc2ccc(C(=N)N)cc2)cc1`, for which the melting point lay in the range of 209 to 214 °C.
Turning to `CC(C)[C@H](NC(=O)OCc1ccccc1)C(N)=O`, the melting point worked out at 206 °C.
The result for `Cc1oc(-c2ccccc2)nc1CCc1noc(CCl)n1` reads 71 to 72 °C; that for `CNC(=C[N+](=O)[O-])NCCCCCCCCCCCCNC(=C[N+](=O)[O-])NCCSCc1ccc(CN(C)C)o1`, 78 to 80 °C.
In the case of `Nc1cn(-c2cccnc2)nc1Cl`, the melting point is 70 to 72 °C.
`CCCc1nc2c(N)nc3ccccc3c2n1CCCCN(O)C(C)=O` came in with a melting point of 191 to 193 °C.
The result for `COC(=O)c1cc(Cl)ccc1N(C(C)C)S(=O)(=O)c1ccc(C)cc1` reads 114 to 116 °C; that for `N#Cc1ncn2c1[C@@H]1CCN1C(=O)c1c-2cccc1C(F)(F)F`, 115 to 119 °C.
For the molecule `CCCNc1c(CN)cnc2cn[nH]c12`, the melting point lay in the range of 97 to 100 °C.
Molecule `N#Cc1[nH]c2ccc(Cl)cc2c1-c1ccccc1F` yielded a melting point of 185 to 186 °C.
The result for `O=C(Nc1cccc(Cl)c1)Nc1ccc(Br)cc1-c1nnn[nH]1` reads 258 to 263 °C.
The result for `CC(C)C(NS(=O)(=O)c1ccc(Br)cc1)C(=O)OC(C)(C)C` (stereo not drawn) reads 108 to 110 °C.
For `CC(C)(C)Sc1c(CC(C)(C)C(=O)O)n(Cc2ccc(Cl)cc2)c2ccc(OCc3ccc4cccnc4n3)cc12` the value was 122 °C; for `O=C1c2ccc(N=CN3CCCCC3)cc2C(=O)c2ccc(N=CN3CCCCC3)cc21`, 229 to 233 °C.
The molecule `COc1cccc(OC)c1CN1CC2CCCN2c2ccccc21` (stereo not drawn) yielded a melting point of 124 to 125 °C.
Regarding `O=C(O)C(=O)CC(=O)c1cn(Cc2ccccc2F)c2ccccc2c1=O`, the melting point is 172 to 174 °C.
For `Cn1c(CNC(=O)Nc2cccc(C(=O)O)c2)c(-c2ccccc2)c2cc(Cl)ccc2c1=O`, the melting point was 236 to 239 °C.
The result for `O=C1c2ccccc2C(=O)N1CC(=O)N1c2ccccc2N(Cc2ccc3ccccc3c2)C(=O)C2CCCC21` (stereo not drawn) reads 238 to 239 °C; that for `CCN(C/C=C/C#CC(C)(C)C)Cc1cccc(N2C(=O)c3ccccc3C2=O)c1`, 65 to 66 °C; that for `COc1ccc(C#CC(C)N(O)C(N)=O)cc1Oc1ccc(F)cc1` (stereo not drawn), 139 to 140 °C.
The result for `CS(=O)c1cc(-c2nc(=O)c3ccccc3s2)ccn1` (stereo not drawn) reads 172 to 174 °C; that for `COP(=O)(CCc1cccc2c1O[C@H]1C[C@@H](O)[C@H](CO)[C@@H]21)OC`, 106 to 107 °C; that for `CC(C)N(C(=O)c1cccc2c1CCc1cc(C(F)(F)F)ccc1S2)C(C)C`, 122 °C.
In turn, `O=[N+]([O-])CS(=O)(=O)c1ccccc1Br` gave a melting point of 74 to 76 °C.
The result for `COC(=O)CC[C@@H](C(N)=O)N1Cc2c(OCc3ccc(CN4CCOCC4)cc3)cccc2C1=O` reads 66 to 68 °C; that for `COC(=O)C=CN1CCN(c2cccc(-n3cnc4cc(-c5ccoc5)ccc43)c2)CC1`, 168 to 171 °C.
For `Cc1ccc(NN)c2c1CC(C)O2` (stereo not drawn) the value was 90 to 92 °C; for `O=C(Nc1ccc(N2CCN(C(=O)Nc3ccc(OCCO)cc3C(F)(F)F)CC2)cc1)Nc1ccccc1F`, 219 to 220 °C; for `C1=C(c2c[nH]c3ccccc23)CCN(CC2COc3ccc4c(c3O2)CCO4)C1` (stereo not drawn), 207 to 209 °C.
The result for `N#CNC(=N)CCCc1ccccc1Sc1ccccc1CCCC(=N)NC#N` reads 155 to 157 °C; that for `CC(C)(C)OC(=O)N(Cc1ccc(C(=O)NCC(=N)NO)cc1)c1ccc(C(C)(C)C)cc1`, 154 to 156 °C; that for `COc1cc(Cl)c2c(=O)c(C(C)C)coc2c1`, 177 to 179 °C.
The molecule `COc1ccc(S(=O)(=O)Nc2ccccc2O)cc1` returned a melting point of 89 °C.
The result for `Fc1ccc2c(C3CCN(CC4=Cc5ccccc54)CC3)noc2c1` reads 78 to 82 °C.
For `N#CCCN(Cc1ccccc1)CC(O)CO` (stereo not drawn) the value was 132 °C; for `CC(C)(C)C(=O)c1c[nH]c2ncc(Cl)nc12`, 209 to 210 °C.
`Clc1ccc2c(NNc3ccccc3)c3c(nc2c1)CCSC3` yielded a melting point of 201 to 202 °C.
The result for `COc1ccc2[nH]c(CC(C)C)c(/C=C/C(=O)c3ccncc3)c2c1` reads 217 to 218 °C.
With `O=C1N(CCCCN2CCN(c3cn(-c4ccc(F)cc4)c4ccccc34)CC2)CSC12CCCCC2`, the melting point fell in the range of 134 to 136 °C.
The molecule `CC1(C)c2ccccc2C(C)(C)C1(S)CC#N` had a melting point of 113 to 114 °C.
For `Cn1cc(Cc2cc3cc(C(F)(F)F)ccc3n2S(=O)(=O)c2cccc(C(C)(C)C)c2)cc1C(=O)O` the value was 160 °C; for `COc1ccc(C(CN(C)C)C2CCCCC2O)cc1` (stereo not drawn), 77 to 79 °C.
For `O=C(Nc1cccc(C(=O)O)c1)OCc1cn(-c2cc3cc(C(=O)O)c(=O)[nH]c3cc2[N+](=O)[O-])cn1` the value was > 300 °C; for `CN1CCOc2cc(N)ccc2C1=O`, 169 to 170 °C.
For `CC1(C)CC(=O)c2c(Sc3ccccc3)sc(C(=O)N3CCCC3)c2C1` the value was 140 °C.
Molecule `CC(=O)OCNC(=O)c1cc(C)c(C(c2cc(F)ccc2F)S(=O)(=O)c2ccc(F)cc2)cn1` (stereo not drawn) showed a melting point of 111 to 113 °C.
For `CCOP(=O)(CNc1cc(Oc2ccc(C(F)(F)F)cn2)ccc1[N+](=O)[O-])OCC` the value was 74 to 76 °C; for `CCOC(=O)NN=C(c1ccc(Cl)cc1)c1ccc(OS(=O)(=O)c2ccc([N+](=O)[O-])cc2)cc1`, 134 to 138 °C.
For `Cn1c(C(F)(F)F)cc(=O)n(-c2ccc(Cl)c(S(N)(=O)=O)c2)c1=O` the value was 257 to 258 °C; for `CCOC(=O)C(=CNC1CC1)C(=O)c1c(F)cc(Cl)c(F)c1Cl`, 106 to 107 °C; for `Cc1c(Cl)c(F)cc(C(=O)O)c1Cl`, 167 to 169 °C.
As for `O=C1N(Cc2ccc(C(F)(F)F)o2)c2ccccc2C12COc1ccc(Br)cc12` (stereo not drawn), the melting point fell in the range of 143 to 145 °C.
In the case of `C(=Cc1ccc2nc(-c3ccccc3)oc2c1)c1ccc(-c2nc3ccccc3o2)cc1`, the melting point fell in the range of 233 to 237 °C.
The result for `CCCCCCCC(O)C1(C)OC(C)=C(O)C1=O` (stereo not drawn) reads 97 to 98 °C; that for `C=CCSC1(C(F)(F)F)C=NC(=O)Nc2ccc(Cl)cc21` (stereo not drawn), 147 to 149 °C.
The result for `O=C(CCCN1CCNC1=O)N1CCC(C2c3ncc(Br)cc3CCc3cc(Cl)cc(Br)c32)CC1` (single isomer, unassigned; (+)) reads 120 to 123 °C.
